# Experimental data reported in PubChem BioAssay (NCI).
#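 Protocol summary: plate cells (96-well), add compound at 5 concentrations, incubate 48 h, interpolate endpoints linearly. GI50 = concentration required for 50% inhibition of growth. Definition used: TGI = concentration required for complete inhibition of growth.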
# Legend:
# Assay in all cases: NCI anticancer screen, dose series, 48 h
# OVCAR-8 ovarian = tested on: OVCAR-8 ovarian
# COLO 205 colon = tested on: COLO 205 colon
# SNB-19 CNS = tested on: SNB-19 CNS
# SF-295 CNS = tested on: SF-295 CNS
# PC-3 prostate = tested on: PC-3 prostate
# SK-OV-3 ovarian = tested on: SK-OV-3 ovarian
# K-562 leukemia = tested on: K-562 leukemia
# SN12C renal = tested on: SN12C renal
# HOP-92 NSCLC = tested on: HOP-92 NSCLC
# NCI/ADR-RES ovarian = tested on: NCI/ADR-RES ovarian
# U251 CNS = tested on: U251 CNS
# NCI-H460 lung = tested on: NCI-H460 lung
# CCRF-CEM leukemia = tested on: CCRF-CEM leukemia
# OVCAR-5 ovarian = tested on: OVCAR-5 ovarian
# HCC-2998 colon = tested on: HCC-2998 colon
# UACC-62 melanoma = tested on: UACC-62 melanoma
# HCT-15 colon = tested on: HCT-15 colon
# IGROV1 ovarian = tested on: IGROV1 ovarian
# MDA-MB-435 = tested on: MDA-MB-435
# BT-549 breast = tested on: BT-549 breast
# SF-268 CNS = tested on: SF-268 CNS
# HL-60(TB) leukemia = tested on: HL-60(TB) leukemia
# A549 NSCLC = tested on: A549 NSCLC
# M14 melanoma = tested on: M14 melanoma
# SW-620 colon = tested on: SW-620 colon
# ACHN renal = tested on: ACHN renal
# UACC-257 melanoma = tested on: UACC-257 melanoma
# SR leukemia = tested on: SR leukemia
# UO-31 renal = tested on: UO-31 renal
# NCI-H23 lung = tested on: NCI-H23 lung
# HS 578T breast = tested on: HS 578T breast
# HOP-62 NSCLC = tested on: HOP-62 NSCLC
# MOLT-4 leukemia = tested on: MOLT-4 leukemia
# SK-MEL-2 melanoma = tested on: SK-MEL-2 melanoma
# SF-539 CNS = tested on: SF-539 CNS
# NCI-H522 lung = tested on: NCI-H522 lung
# TK-10 renal = tested on: TK-10 renal
# SK-MEL-5 melanoma = tested on: SK-MEL-5 melanoma
# T-47D breast = tested on: T-47D breast
# OVCAR-3 ovarian = tested on: OVCAR-3 ovarian
# DU-145 prostate = tested on: DU-145 prostate
# EKVX NSCLC = tested on: EKVX NSCLC
# HCT-116 colon = tested on: HCT-116 colon
# MCF7 breast = tested on: MCF7 breast
# RXF 393 renal = tested on: RXF 393 renal
# KM12 colon = tested on: KM12 colon
# RPMI-8226 leukemia = tested on: RPMI-8226 leukemia
# MDA-MB-231 breast = tested on: MDA-MB-231 breast
# LOX IMVI melanoma = tested on: LOX IMVI melanoma
# 786-0 renal = tested on: 786-0 renal
# CAKI-1 renal = tested on: CAKI-1 renal
# OVCAR-4 ovarian = tested on: OVCAR-4 ovarian
# NCI-H226 lung = tested on: NCI-H226 lung
# A498 renal = tested on: A498 renal
# SNB-75 CNS = tested on: SNB-75 CNS
# SK-MEL-28 melanoma = tested on: SK-MEL-28 melanoma
# MALME-3M melanoma = tested on: MALME-3M melanoma
# HT29 colon = tested on: HT29 colon
smiles,measurement,setting,value
Cc1c(O)c(N=Nc2nc3ccccc3s2)c2ccccc2c1O,GI50,OVCAR-8 ovarian,19.7 µM
same,TGI,OVCAR-8 ovarian,> 50 µM
same,GI50,COLO 205 colon,21.4 µM
same,TGI,COLO 205 colon,> 50 µM
same,GI50,SNB-19 CNS,28.4 µM
same,TGI,SNB-19 CNS,> 50 µM
same,GI50,SF-295 CNS,24.7 µM
same,TGI,SF-295 CNS,> 50 µM
same,GI50,PC-3 prostate,32 µM
same,TGI,PC-3 prostate,> 50 µM
same,GI50,SK-OV-3 ovarian,30.1 µM
same,TGI,SK-OV-3 ovarian,> 50 µM
same,GI50,K-562 leukemia,14.7 µM
same,TGI,K-562 leukemia,48.3 µM
same,GI50,SN12C renal,16.7 µM
same,TGI,SN12C renal,> 50 µM
same,GI50,HOP-92 NSCLC,33.9 µM
same,TGI,HOP-92 NSCLC,> 50 µM
same,GI50,NCI/ADR-RES ovarian,34.3 µM
same,TGI,NCI/ADR-RES ovarian,> 50 µM
same,GI50,U251 CNS,25.5 µM
same,TGI,U251 CNS,> 50 µM
same,GI50,NCI-H460 lung,28 µM
same,TGI,NCI-H460 lung,> 50 µM
same,GI50,CCRF-CEM leukemia,> 50 µM
same,TGI,CCRF-CEM leukemia,> 50 µM
same,GI50,OVCAR-5 ovarian,> 50 µM
same,TGI,OVCAR-5 ovarian,> 50 µM
same,GI50,HCC-2998 colon,> 50 µM
same,TGI,HCC-2998 colon,> 50 µM
same,GI50,UACC-62 melanoma,15.3 µM
same,TGI,UACC-62 melanoma,> 50 µM
same,GI50,HCT-15 colon,23.3 µM
same,TGI,HCT-15 colon,> 50 µM
same,GI50,IGROV1 ovarian,17.6 µM
same,TGI,IGROV1 ovarian,> 50 µM
same,GI50,MDA-MB-435,19.8 µM
same,TGI,MDA-MB-435,> 50 µM
same,GI50,BT-549 breast,15.5 µM
same,TGI,BT-549 breast,> 50 µM
same,GI50,SF-268 CNS,18.2 µM
same,TGI,SF-268 CNS,> 50 µM
same,GI50,HL-60(TB) leukemia,> 50 µM
same,TGI,HL-60(TB) leukemia,> 50 µM
same,GI50,A549 NSCLC,19.8 µM
same,TGI,A549 NSCLC,> 50 µM
same,GI50,M14 melanoma,33.5 µM
same,TGI,M14 melanoma,> 50 µM
same,GI50,SW-620 colon,25.9 µM
same,TGI,SW-620 colon,> 50 µM
same,GI50,ACHN renal,19.4 µM
same,TGI,ACHN renal,> 50 µM
same,GI50,UACC-257 melanoma,14.7 µM
same,TGI,UACC-257 melanoma,36.1 µM
same,GI50,SR leukemia,> 50 µM
same,TGI,SR leukemia,> 50 µM
same,GI50,UO-31 renal,18.8 µM
same,TGI,UO-31 renal,> 50 µM
same,GI50,NCI-H23 lung,13.9 µM
same,TGI,NCI-H23 lung,> 50 µM
same,GI50,HS 578T breast,28.9 µM
same,TGI,HS 578T breast,> 50 µM
same,GI50,HOP-62 NSCLC,> 50 µM
same,TGI,HOP-62 NSCLC,> 50 µM
same,GI50,MOLT-4 leukemia,> 50 µM
same,TGI,MOLT-4 leukemia,> 50 µM
same,GI50,SK-MEL-2 melanoma,17.3 µM
same,TGI,SK-MEL-2 melanoma,43.2 µM
same,GI50,SF-539 CNS,18.3 µM
same,TGI,SF-539 CNS,> 50 µM
same,GI50,NCI-H522 lung,19.1 µM
same,TGI,NCI-H522 lung,46.6 µM
same,GI50,TK-10 renal,> 50 µM
same,TGI,TK-10 renal,> 50 µM
same,GI50,SK-MEL-5 melanoma,8.85 µM
same,TGI,SK-MEL-5 melanoma,21.2 µM
same,GI50,T-47D breast,39.2 µM
same,TGI,T-47D breast,> 50 µM
same,GI50,OVCAR-3 ovarian,12.3 µM
same,TGI,OVCAR-3 ovarian,> 50 µM
same,GI50,DU-145 prostate,23.4 µM
same,TGI,DU-145 prostate,> 50 µM
same,GI50,EKVX NSCLC,13.3 µM
same,TGI,EKVX NSCLC,> 50 µM
same,GI50,HCT-116 colon,22.6 µM
same,TGI,HCT-116 colon,> 50 µM
same,GI50,MCF7 breast,> 50 µM
same,TGI,MCF7 breast,> 50 µM
same,GI50,RXF 393 renal,12.5 µM
same,TGI,RXF 393 renal,39.7 µM
same,GI50,KM12 colon,23.2 µM
same,TGI,KM12 colon,> 50 µM
same,GI50,RPMI-8226 leukemia,23.6 µM
same,TGI,RPMI-8226 leukemia,> 50 µM
same,GI50,MDA-MB-231 breast,26.5 µM
same,TGI,MDA-MB-231 breast,> 50 µM
same,GI50,LOX IMVI melanoma,29.7 µM
same,TGI,LOX IMVI melanoma,> 50 µM
same,GI50,786-0 renal,> 50 µM
same,TGI,786-0 renal,> 50 µM
same,GI50,CAKI-1 renal,21.1 µM
same,TGI,CAKI-1 renal,> 50 µM
CC1CCN(Cc2ccc(NC(=O)c3cc4ccc5cccnc5c4[nH]3)cc2)CC1,GI50,OVCAR-8 ovarian,10.6 µM
same,TGI,OVCAR-8 ovarian,29.5 µM
same,GI50,OVCAR-4 ovarian,16.5 µM
same,TGI,OVCAR-4 ovarian,> 100 µM
same,GI50,SNB-19 CNS,13.1 µM
same,TGI,SNB-19 CNS,27.6 µM
same,GI50,SF-295 CNS,1.98 µM
same,TGI,SF-295 CNS,4.45 µM
same,GI50,PC-3 prostate,5.1 µM
same,TGI,PC-3 prostate,23.7 µM
same,GI50,NCI-H226 lung,23.5 µM
same,TGI,NCI-H226 lung,73.4 µM
same,GI50,SK-OV-3 ovarian,6.98 µM
same,TGI,SK-OV-3 ovarian,42.5 µM
same,GI50,K-562 leukemia,2.53 µM
same,TGI,K-562 leukemia,9.07 µM
same,GI50,SN12C renal,7.9 µM
same,TGI,SN12C renal,29.4 µM
same,GI50,HOP-92 NSCLC,4.76 µM
same,TGI,HOP-92 NSCLC,20.5 µM
same,GI50,NCI/ADR-RES ovarian,17.3 µM
same,TGI,NCI/ADR-RES ovarian,68.9 µM
same,GI50,U251 CNS,2.8 µM
same,TGI,U251 CNS,10.3 µM
same,GI50,NCI-H460 lung,4.16 µM
same,TGI,NCI-H460 lung,28.1 µM
same,GI50,A498 renal,2.42 µM
same,TGI,A498 renal,12.9 µM
same,GI50,OVCAR-5 ovarian,11.3 µM
same,TGI,OVCAR-5 ovarian,35.3 µM
same,GI50,SNB-75 CNS,10.8 µM
same,TGI,SNB-75 CNS,27.8 µM
same,GI50,HCC-2998 colon,2.55 µM
same,TGI,HCC-2998 colon,5.8 µM
same,GI50,UACC-62 melanoma,2.17 µM
same,TGI,UACC-62 melanoma,4.54 µM
same,GI50,HCT-15 colon,3.07 µM
same,TGI,HCT-15 colon,18.5 µM
same,GI50,IGROV1 ovarian,6.15 µM
same,TGI,IGROV1 ovarian,54.1 µM
same,GI50,MDA-MB-435,1.99 µM
same,TGI,MDA-MB-435,4.24 µM
same,GI50,SK-MEL-28 melanoma,1.79 µM
same,TGI,SK-MEL-28 melanoma,3.49 µM
same,GI50,BT-549 breast,10.8 µM
same,TGI,BT-549 breast,24.3 µM
same,GI50,SF-268 CNS,7.07 µM
same,TGI,SF-268 CNS,40.9 µM
same,GI50,HL-60(TB) leukemia,3.16 µM
same,TGI,HL-60(TB) leukemia,13.1 µM
same,GI50,M14 melanoma,2.05 µM
same,TGI,M14 melanoma,4.08 µM
same,GI50,SW-620 colon,3.4 µM
same,TGI,SW-620 colon,16.6 µM
same,GI50,ACHN renal,5.47 µM
same,TGI,ACHN renal,23.1 µM
same,GI50,MALME-3M melanoma,2.05 µM
same,TGI,MALME-3M melanoma,3.72 µM
same,GI50,SR leukemia,2.29 µM
same,TGI,SR leukemia,6.65 µM
same,GI50,UO-31 renal,2.05 µM
same,TGI,UO-31 renal,8.18 µM
same,GI50,NCI-H23 lung,14.4 µM
same,TGI,NCI-H23 lung,37.7 µM
same,GI50,HS 578T breast,4.09 µM
same,TGI,HS 578T breast,28.3 µM
same,GI50,HOP-62 NSCLC,5.27 µM
same,TGI,HOP-62 NSCLC,33.9 µM
same,GI50,MOLT-4 leukemia,3 µM
same,TGI,MOLT-4 leukemia,9.85 µM
same,GI50,SK-MEL-2 melanoma,2.45 µM
same,TGI,SK-MEL-2 melanoma,6.2 µM
same,GI50,SF-539 CNS,1.94 µM
same,TGI,SF-539 CNS,4.01 µM
same,GI50,TK-10 renal,8.56 µM
same,TGI,TK-10 renal,23.2 µM
same,GI50,T-47D breast,6.81 µM
same,TGI,T-47D breast,28.3 µM
same,GI50,OVCAR-3 ovarian,7.83 µM
same,TGI,OVCAR-3 ovarian,39.2 µM
same,GI50,DU-145 prostate,8.79 µM
same,TGI,DU-145 prostate,> 100 µM
same,GI50,HCT-116 colon,4.18 µM
same,TGI,HCT-116 colon,19.6 µM
same,GI50,MCF7 breast,2.48 µM
same,TGI,MCF7 breast,14.7 µM
same,GI50,RXF 393 renal,2.18 µM
same,TGI,RXF 393 renal,6.26 µM
same,GI50,KM12 colon,5.31 µM
same,TGI,KM12 colon,35.8 µM
same,GI50,RPMI-8226 leukemia,2.58 µM
same,TGI,RPMI-8226 leukemia,6.99 µM
same,GI50,MDA-MB-231 breast,5.59 µM
same,TGI,MDA-MB-231 breast,23.2 µM
same,GI50,786-0 renal,2.71 µM
same,TGI,786-0 renal,8.46 µM
same,GI50,HT29 colon,3 µM
same,TGI,HT29 colon,14.5 µM
same,GI50,CAKI-1 renal,6.58 µM
same,TGI,CAKI-1 renal,31 µM
